# Strand notation (5' to 3'): a small letter for the sugar, then the base; units joined by * are phosphorothioate-linked, units joined directly phosphodiester-linked; [ ] holds rarer units or linkages, { } end groups; capitals alone tell only the bases. e = 2'-O-(2-methoxyethyl) (MOE); [5mC] = 5-methylcytosine; d = 2'-deoxy (DNA)
# How the values were obtained:
# Format in all cases: cell-based
# human Factor 7 mRNA [1] = assay: Dose-dependent antisense inhibition of human Factor 7 in HepB3 cells, lipofectin; settings: HepB3 cells, approx. 16 hours (Table 14)
# Method in brief: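 HepB3 cells (4,000/well) lipofectin-transfected with antisense oligonucleotide at 3.125 or 6.25 up to 100 nM for ~16 h. Factor 7 mRNA measured by real-time RT-PCR with primer probe set RTS 2927, adjusted to RIBOGREEN total RNA; expressed as percent inhibition versus untreated control cells.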
# human Factor 7 mRNA [2] = assay: Antisense inhibition of human Factor 7 mRNA in HepB3 cells, 50 nM antisense oligonucleotide, lipofectin; settings: for % Inhibition: Table 13 (microwalk), 50 nM, lipofectin, approximately 24 hours
# Method in brief: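 HepB3 cells were transfected by lipofectin with 50 nM antisense oligonucleotide and harvested after about 24 h. Factor 7 mRNA was measured by real-time RT-PCR (primer probe set RTS 2927 in some runs), normalized to RIBOGREEN total RNA, and reported as percent inhibition versus untreated control.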
# human Factor 7 mRNA [3] = assay: Dose-dependent antisense inhibition of human Factor 7 in HepB3 cells, electroporation
# Method: (§1) The gapmers were also transfected via electroporation and their dose-dependent inhibition of human Factor 7 mRNA was measured. Cells were plated at a density of 20,000 cells per well and transfected via electroporation with 3.125 μM, 6.25 μM, 12.5 μM, 25 μM, 50 μM, and 100 μM concentrations of antisense oligonucleotide, as specified in Table 15. After a treatment period of approximately 16 hours, RNA was isolated from the cells and Factor 7 mRNA levels were measured by quantitative real-time PCR. Human Factor 7 primer probe set RTS 2927 was used to measure mRNA levels. Factor 7 mRNA levels were adjusted according to total RNA content, as measured by RIBOGREEN®. Results are presented as percent inhibition of Factor 7, relative to untreated control cells.
# as §1, with “Cells were” for “The gapmers were also transfected via electroporation and their dose-dependent inhibition of human Factor 7 mRNA was measured. Cells were”, “in […]. After a” for “in Table 15. After a”, “cells and human Factor 7” for “cells and Factor 7”
# [4] = 3.125 μM, approx. 16 hours (Table 15, Example 7)
# [5] = 6.25 μM, approx. 16 hours (Table 15, Example 7)
# [6] = 12.5 μM, approx. 16 hours (Table 15, Example 7)
# [7] = 25 μM, approx. 16 hours (Table 15, Example 7)
# [8] = 50 μM, approx. 16 hours (Table 15, Example 7)
# [9] = 100 μM, approx. 16 hours (Table 15, Example 7)
# [10] = 3.125 μM, approx. 16 hours (Table 16, Example 8 confirmation)
# [11] = 6.25 μM, approx. 16 hours (Table 16, Example 8 confirmation)
# [12] = 12.5 μM, approx. 16 hours (Table 16, Example 8 confirmation)
# [13] = 25 μM, approx. 16 hours (Table 16, Example 8 confirmation)
# [14] = 50 μM, approx. 16 hours (Table 16, Example 8 confirmation)
# [15] = 100 μM, approx. 16 hours (Table 16, Example 8 confirmation)
Substance,"percent inhibition of Factor 7 mRNA, relative to untreated control cells (human Factor 7 mRNA [1]; 3.125 nM)","percent inhibition of Factor 7 mRNA, relative to untreated control cells (human Factor 7 mRNA [1]; 12.5 nM)","percent inhibition of Factor 7 mRNA, relative to untreated control cells (human Factor 7 mRNA [1]; 25 nM)","percent inhibition of Factor 7 mRNA, relative to untreated control cells (human Factor 7 mRNA [1]; 50 nM)","percent inhibition of Factor 7 mRNA, relative to untreated control cells (human Factor 7 mRNA [1]; 100 nM)","percent inhibition of Factor 7 mRNA, relative to untreated control cells (human Factor 7 mRNA [1])","percent inhibition of Factor 7 mRNA, relative to untreated control cells (human Factor 7 mRNA [3]; [4])","percent inhibition of Factor 7 mRNA, relative to untreated control cells (human Factor 7 mRNA [3]; [5])","percent inhibition of Factor 7 mRNA, relative to untreated control cells (human Factor 7 mRNA [3]; [6])","percent inhibition of Factor 7 mRNA, relative to untreated control cells (human Factor 7 mRNA [3]; [7])","percent inhibition of Factor 7 mRNA, relative to untreated control cells (human Factor 7 mRNA [3]; [8])","percent inhibition of Factor 7 mRNA, relative to untreated control cells (human Factor 7 mRNA [3]; [9])",% Inhibition (human Factor 7 mRNA [2]),"percent inhibition of Factor 7 mRNA, relative to untreated control cells (human Factor 7 mRNA [3]; [10])","percent inhibition of Factor 7 mRNA, relative to untreated control cells (human Factor 7 mRNA [3]; [11])","percent inhibition of Factor 7 mRNA, relative to untreated control cells (human Factor 7 mRNA [3]; [12])","percent inhibition of Factor 7 mRNA, relative to untreated control cells (human Factor 7 mRNA [3]; [13])","percent inhibition of Factor 7 mRNA, relative to untreated control cells (human Factor 7 mRNA [3]; [14])","percent inhibition of Factor 7 mRNA, relative to untreated control cells (human Factor 7 mRNA [3]; [15])",other results
422217 (antisense eG*eA*eG*dT*dT*d[5mC]*dT*dG*d[5mC]*dA*dG*dG*dA*dG*d[5mC]*dG*dG*e[5mC]*e[5mC]*eT) [compound 422217],8%,45%,63%,79%,83%,18%,15%,19%,29%,55%,61%,83%,–,–,–,–,–,–,–,"% Inhibition of human Factor 7 mRNA levels (human Factor 7 mRNA [2]; gapmers targeted to nucleobases 4868 to 4899 of SEQ ID NO: 1, Table 8): 75%"
422150 (antisense eG*e[5mC]*eA*dT*dG*dG*dT*dG*dA*dT*dG*d[5mC]*dT*dT*d[5mC]*dT*dG*eA*eA*eT) [compound 422150],9%,38%,59%,79%,87%,23%,17%,20%,40%,54%,68%,83%,74%,0%,31%,53%,67%,77%,86%,–
422228 (antisense eT*eG*d[5mC]*dA*dT*dG*dG*dT*dG*dA*dT*dG*d[5mC]*dT*dT*e[5mC]*eT*eG*eA*eA) [compound 422228],17%,43%,60%,78%,90%,25%,18%,33%,40%,47%,71%,83%,73%,–,–,–,–,–,–,–
422130 (antisense eG*e[5mC]*e[5mC]*eT*eG*dA*dG*dG*d[5mC]*d[5mC]*dA*dG*d[5mC]*dA*dG*eA*eT*e[5mC]*eA*e[5mC]) [compound 422130],4%,34%,59%,77%,85%,15%,28%,29%,59%,61%,73%,86%,–,14%,24%,61%,68%,82%,88%,% Inhibition (human Factor 7 mRNA levels) (human Factor 7 mRNA [2]; oligonucleotides targeted to nucleobases 14707 to 14732 of SEQ ID NO: 1 (Table 11)): 79%
422229 (antisense eA*eT*dG*d[5mC]*dA*dT*dG*dG*dT*dG*dA*dT*dG*d[5mC]*dT*eT*e[5mC]*eT*eG*eA) [compound 422229],21%,53%,72%,86%,92%,32%,21%,30%,33%,44%,65%,77%,71%,30%,45%,67%,79%,90%,92%,–

# From patent publication US9029337B2, “Modulation of factor 7 expression” (Isis Pharmaceuticals, Inc., priority 2007, dated 2015)
